Laboratory results published in US10098350B2, “Fungicidal amides” (E. I. DU PONT DE NEMOURS AND COMPANY, priority 2013, dated 2018).

Columns and labels:
Assay type in all cases: in vivo
[1] = test system: Erysiphe graminis f. sp. tritici; test: Test E: wheat seedlings sprayed with test suspension, inoculated with Erysiphe graminis f. sp. tritici (wheat powdery mildew), visual disease rating
Source text: (§1) General protocol for preparing test suspensions for Tests A-E: the test compounds were first dissolved in acetone in an amount equal to 3% of the final volume and then suspended at the desired concentration (in ppm) in acetone and purified water (50/50 mix by volume) containing 250 ppm of the surfactant Trem® 014 (polyhydric alcohol esters). The resulting test suspensions were then used in Tests A-E. Samples were applied to plants at either a 10 ppm (**), 40 ppm, 50 ppm (*) or 200 ppm (#) test solution to the point of run-off on the test plants with the equivalent of a rate of 40 g ai/ha, 160 g ai/ha, 200 g ai/ha, or 800 g ai/ha, respectively.
The test suspension was sprayed to the point of run-off on wheat seedlings. The following day the seedlings were inoculated with a spore dust of Erysiphe graminis f. sp. tritici, (the causal agent of wheat powdery mildew) and incubated in a growth chamber at 20° C. for 7 or 8 days, after which time visual disease ratings were made.
(§2) Results for Tests A-E are given in Table A. In the Table, a rating of 100 indicates 100% disease control and a rating of 0 indicates no disease control (relative to the controls). A dash (-) indicates no test results.

[2] = test system: Puccinia recondite f. sp. tritici; test: Test D: wheat seedlings sprayed with test suspension, inoculated with Puccinia recondite f. sp. tritici (wheat leaf rust), visual disease rating
Source text: as §1
The test suspension was sprayed to the point of run-off on wheat seedlings. The following day the seedlings were inoculated with a spore suspension of Puccinia recondite f. sp. tritici; (the causal agent of wheat leaf rust) and incubated in a saturated atmosphere at 20° C. for 24 h, and then moved to a growth chamber at 20° C. for 6 days, after which time visual disease ratings were made.
as §2

Septoria tritici = test: Test C: wheat seedlings sprayed with test suspension, inoculated with Septoria tritici (wheat leaf blotch), visual disease rating
Source text: as §1
The test suspension was sprayed to the point of run-off on wheat seedlings. The following day the seedlings were inoculated with a spore suspension of Septoria tritici (the causal agent of wheat leaf blotch) and incubated in a saturated atmosphere at 24° C. for 48 h, and then moved to a growth chamber at 20° C. for 21 days, after which time visual disease ratings were made.
as §2

[3] = Cmpd. No. marked '**' (other test rate; meaning of mark not shown)
[4] = Cmpd. No. marked '*' (other test rate; meaning of mark not shown)
[5] = Cmpd. No. unmarked, 100 = 100% disease control, 0 = no control relative to controls

Compound	Test E rating (% disease control) [1, 3]	Test D rating (% disease control) [2, 3]	Test C rating (% disease control) (Septoria tritici; [3])	Test E rating (% disease control) [1, 4]	Test D rating (% disease control) [2, 4]	Test C rating (% disease control) (Septoria tritici; [4])	further results
CC(C)c1cc(CN(C(=O)c2c(C(F)F)nn(C)c2F)C2CC2)ccc1-n1ccc(C(F)(F)F)n1 [compound 116]	69%	98%	–	–	–	–	–
CC(c1cccc(-n2ccc(C(F)(F)F)n2)c1Cl)N(C(=O)c1cn(C)nc1C(F)F)C1CC1 (stereo not shown) [compound 77]	64%	9%	82%	–	–	–	–
CC(c1ncc(-n2ccc(Br)n2)cc1Cl)N(C(=O)c1c(C(F)F)nn(C)c1F)C1CC1 (racemic) [compound 89]	81%	99%	100%	–	–	–	–
CC(c1ncc(-n2cc(Br)cn2)cc1Cl)N(C(=O)c1c(C(F)F)nn(C)c1F)C1CC1 (stereo not shown) [compound 78]	92%	94%	100%	–	–	–	–
Cc1ccc(CN(C(=O)c2c(C(F)F)nn(C)c2F)C2CC2)cc1-n1ccc(C(F)(F)F)n1 [compound 87]	–	–	–	92%	80%	98%	–
Cc1ccc(C(C)N(C(=O)c2c(C(F)F)nn(C)c2F)C2CC2)cc1-n1ccc(C(F)(F)F)n1 (stereo not shown) [compound 73]	–	–	–	–	–	–	Test E rating (% disease control) [1, 5]: 90%; Test D rating (% disease control) [2, 5]: 85%; Test C rating (% disease control) (Septoria tritici; [5]): 99%
Cn1nc(C(F)F)c(C(=O)N(Cc2ncc(-n3ccc(C(F)(F)F)n3)cc2Cl)C2CC2)c1F [compound 122]	87%	99%	96%	–	–	–	–
Cc1cc(CN(C(=O)c2c(C(F)F)nn(C)c2F)C2CC2)ccc1-n1ccc(C(F)(F)F)n1 [compound 93]	69%	99%	100%	–	–	–	–
C=C(C)c1cc(CN(C(=O)c2c(C(F)F)nn(C)c2F)C2CC2)ccc1-n1ccc(C(F)(F)F)n1 [compound 102]	13%	98%	100%	–	–	–	–
CC(C)c1ccc(-n2ccc(C(F)(F)F)n2)cc1C(C)N(C(=O)c1cn(C)nc1C(F)F)C1CC1 (stereo not shown) [compound 82]	–	–	–	87%	0%	88%	–
Cn1cc(-c2cnc(CN(C(=O)c3c(C(F)F)nn(C)c3F)C3CC3)c(Br)c2)cn1 [compound 110]	–	–	–	40%	94%	90%	–
Cn1nc(C(F)F)c(C(=O)N(Cc2ncc(-n3ccc(C(F)(F)F)n3)cc2Br)C2CC2)c1F [compound 91]	73%	98%	100%	–	–	–	–
Cn1nc(C(F)F)c(C(=O)N(Cc2cccc(-n3ccc(C(F)(F)F)n3)c2C(F)(F)F)C2CC2)c1F [compound 137]	–	–	–	87%	98%	94%	–
Cn1nc(C(F)F)c(C(=O)N(Cc2ncc(-n3ccc(C(F)(F)F)n3)cc2C2CC2)C2CC2)c1F [compound 114]	92%	100%	100%	–	–	–	–
Cn1cc(C(=O)N(Cc2cc(Cl)cc(-n3ccc(C(F)(F)F)n3)c2)C2CC2)c(C(F)F)n1 [compound 112]	–	–	–	40%	54%	94%	–
CC(c1ccc(Cl)c(-n2ccc(C(F)(F)F)n2)c1)N(C(=O)c1c(C(F)F)nn(C)c1F)C1CC1 (stereo not shown) [compound 74]	–	–	–	–	–	–	Test E rating (% disease control) [1, 5]: 93%; Test D rating (% disease control) [2, 5]: 27%; Test C rating (% disease control) (Septoria tritici; [5]): 99%

Compound	Test E rating (% disease control) [1, 3]	Test D rating (% disease control) [2, 3]	Test C rating (% disease control) (Septoria tritici; [3])	Test E rating (% disease control) [1, 4]	Test D rating (% disease control) [2, 4]	Test C rating (% disease control) (Septoria tritici; [4])	further results
CC(c1ncc(-n2ccc(C(F)(F)F)n2)cc1Cl)N(C(=O)c1c(C(F)F)nn(C)c1F)C1CC1 (stereo not shown) [compound 103]	94%	98%	98%	–	–	–	–
Cn1nc(C(F)F)c(C(=O)N(Cc2ccc(-n3ccc(C(F)(F)F)n3)c(C(F)(F)F)c2)C2CC2)c1F [compound 95]	27%	67%	87%	–	–	–	–
CC(c1cc(Cl)cc(-n2ccc(C(F)(F)F)n2)c1)N(C(=O)c1c(C(F)F)nn(C)c1F)C1CC1 (stereo not shown) [compound 54]	–	–	–	93%	99%	96%	–
COc1cc(CN(C(=O)c2c(C(F)F)nn(C)c2F)C2CC2)ccc1-n1ccc(C(F)(F)F)n1 [compound 96]	73%	99%	100%	–	–	–	–
CC(C)c1ccc(-n2ccc(C(F)(F)F)n2)cc1CN(C(=O)c1c(C(F)F)nn(C)c1F)C1CC1 [compound 88]	–	–	–	98%	99%	94%	–
COc1ccc(-n2ccc(C(F)(F)F)n2)cc1CN(C(=O)c1c(C(F)F)nn(C)c1F)C1CC1 [compound 113]	–	–	–	97%	99%	100%	–
CC(c1ncc(-n2ccc(-c3ccccc3)n2)cc1Cl)N(C(=O)c1c(C(F)F)nn(C)c1F)C1CC1 (racemic) [compound 90]	86%	99%	99%	–	–	–	–
C=C(C)c1ccc(-n2ccc(C(F)(F)F)n2)cc1C(C)N(C(=O)c1c(C(F)F)nn(C)c1F)C1CC1 (racemic) [compound 123]	–	–	–	93%	92%	100%	–
Cc1cc(-n2ccc(C(F)(F)F)n2)cnc1CN(C(=O)c1c(C(F)F)nn(C)c1F)C1CC1 [compound 81]	81%	98%	94%	–	–	–	–
Cn1cc(C(=O)N(Cc2ncc(-n3ccc(C(F)(F)F)n3)cc2Br)C2CC2)c(C(F)F)n1 [compound 16]	–	–	–	56%	67%	100%	–
CC(c1cccc(-n2ccc(C(F)(F)F)n2)c1Cl)N(C(=O)c1c(C(F)F)nn(C)c1F)C1CC1 (stereo not shown) [compound 79]	–	–	–	98%	74%	99%	–
Cn1cc(C(=O)N(Cc2cc(-n3ccc(C(F)(F)F)n3)ncc2Cl)C2CC2)c(C(F)F)n1 [compound 75]	0%	45%	24%	–	–	–	–
Cn1nc(C(F)F)c(C(=O)N(Cc2cccc(-n3ccc(C(F)(F)F)n3)c2Cl)C2CC2)c1F [compound 136]	–	–	–	87%	99%	100%	–
CC(c1ncc(-n2cccn2)cc1Cl)N(C(=O)c1c(C(F)F)nn(C)c1F)C1CC1 (racemic) [compound 101]	79%	82%	96%	–	–	–	–
Cn1nc(C(F)F)c(C(=O)N(Cc2cc(-n3ccc(C(F)(F)F)n3)ncc2Cl)C2CC2)c1F [compound 92]	0%	67%	–	–	–	–	–
